From ChEMBL document CHEMBL5126643, “Design and Characterization of Novel Small Molecule Activators of Excitatory Amino Acid Transporter 2” (ACS Med Chem Lett, 2022)

Experiments:
[1] = target: Excitatory amino acid transporter 2 (Homo sapiens, UniProt P43004); experiment: Activation of human EAAT2 overexpressed in MDCK cells assessed as glutamate reuptake incubated for 5 mins by LCMS assay; assay type: cell-based
[2] = AUC in CD-1 mouse brain at 10 mg/kg, ip measured up to 8 hrs by LC-MS/MS analysis; assay type: ADME, organism-based; set-up: time < 8 hrs, dose 10 mg/kg, route ip; conditions: in vivo
[3] = Primary phase half life in CD-1 mouse brain at 10 mg/kg, ip measured up to 8 hrs by LC-MS/MS analysis; assay type: ADME, organism-based; conditions: read-out: alphat1/2 (converted)
[4] = Cmax in CD-1 mouse brain at 10 mg/kg, ip measured up to 8 hrs by LC-MS/MS analysis; assay type: ADME, organism-based; set-up: dose 10 mg/kg, time < 8 hrs, route ip
[5] = Tmax in CD-1 mouse brain at 10 mg/kg, ip measured up to 8 hrs by LC-MS/MS analysis; assay type: ADME, organism-based
[6] = AUC in CD-1 mouse plasma at 10 mg/kg, ip measured up to 8 hrs by LC-MS/MS analysis; assay type: ADME, organism-based; set-up: time < 8 hrs, dose 10 mg/kg, route ip; conditions: in vivo
[7] = Primary phase half life in CD-1 mouse plasma at 10 mg/kg, ip measured up to 8 hrs by LC-MS/MS analysis; assay type: ADME, organism-based; conditions: read-out: alphat1/2 (converted)
[8] = Cmax in CD-1 mouse plasma at 10 mg/kg, ip measured up to 8 hrs by LC-MS/MS analysis; assay type: ADME, organism-based; set-up: dose 10 mg/kg, time < 8 hrs, route ip
[9] = Tmax in CD-1 mouse plasma at 10 mg/kg, ip measured up to 8 hrs by LC-MS/MS analysis; assay type: ADME, organism-based
[10] = Lipophilicity, log P of the compound; assay type: physicochemical; conditions: octanol/water
[11] = Cmax in Wistar rat brain at 5 mg/kg, iv measured up to 24 hrs by LC-MS/MS analysis; assay type: ADME, organism-based; set-up: dose 5 mg/kg, time < 24 hrs, route iv
[12] = Tmax in Wistar rat brain at 5 mg/kg, iv measured up to 24 hrs by LC-MS/MS analysis; assay type: ADME, organism-based
[13] = AUC in Wistar rat brain at 5 mg/kg, iv measured up to 24 hrs by LC-MS/MS analysis; assay type: ADME, organism-based; set-up: time < 24 hrs, dose 5 mg/kg, route iv; conditions: in vivo
[14] = Half life in Wistar rat brain at 5 mg/kg, iv measured up to 24 hrs by LC-MS/MS analysis; assay type: ADME, organism-based
[15] = Cmax in Wistar rat plasma at 5 mg/kg, iv measured up to 24 hrs by LC-MS/MS analysis; assay type: ADME, organism-based; set-up: dose 5 mg/kg, time < 24 hrs, route iv
[16] = Tmax in Wistar rat plasma at 5 mg/kg, iv measured up to 24 hrs by LC-MS/MS analysis; assay type: ADME, organism-based
[17] = AUC in Wistar rat plasma at 5 mg/kg, iv measured up to 24 hrs by LC-MS/MS analysis; assay type: ADME, organism-based; set-up: dose 5 mg/kg, time < 24 hrs, route iv; conditions: in vivo
[18] = Half life in Wistar rat plasma at 5 mg/kg, iv measured up to 24 hrs by LC-MS/MS analysis; assay type: ADME, organism-based
[19] = Cmax in Wistar rat brain at 10 mg/kg, ip measured up to 24 hrs by LC-MS/MS analysis; assay type: ADME, organism-based; set-up: time < 24 hrs, dose 10 mg/kg, route ip
[20] = Tmax in Wistar rat brain at 10 mg/kg, ip measured up to 24 hrs by LC-MS/MS analysis; assay type: ADME, organism-based
[21] = AUC in Wistar rat brain at 10 mg/kg, ip measured up to 24 hrs by LC-MS/MS analysis; assay type: ADME, organism-based; set-up: dose 10 mg/kg, time < 24 hrs, route ip; conditions: in vivo
[22] = Half life in Wistar rat brain at 10 mg/kg, ip measured up to 24 hrs by LC-MS/MS analysis; assay type: ADME, organism-based
[23] = Cmax in Wistar rat plasma at 10 mg/kg, ip measured up to 24 hrs by LC-MS/MS analysis; assay type: ADME, organism-based; set-up: dose 10 mg/kg, time < 24 hrs, route ip
[24] = Tmax in Wistar rat plasma at 10 mg/kg, ip measured up to 24 hrs by LC-MS/MS analysis; assay type: ADME, organism-based
[25] = AUC in Wistar rat plasma at 10 mg/kg, ip measured up to 24 hrs by LC-MS/MS analysis; assay type: ADME, organism-based; set-up: time < 24 hrs, dose 10 mg/kg, route ip; conditions: in vivo
[26] = Half life in Wistar rat plasma at 10 mg/kg, ip measured up to 24 hrs by LC-MS/MS analysis; assay type: ADME, organism-based
[27] = Cmax in Wistar rat brain at 10 mg/kg, po measured up to 24 hrs by LC-MS/MS analysis; assay type: ADME, organism-based; set-up: dose 10 mg/kg, time < 24 hrs, route po
[28] = Tmax in Wistar rat brain at 10 mg/kg, po measured up to 24 hrs by LC-MS/MS analysis; assay type: ADME, organism-based
[29] = AUC in Wistar rat brain at 10 mg/kg, po measured up to 24 hrs by LC-MS/MS analysis; assay type: ADME, organism-based; set-up: time < 24 hrs, dose 10 mg/kg, route po; conditions: in vivo
[30] = Cmax in Wistar rat plasma at 10 mg/kg, po measured up to 24 hrs by LC-MS/MS analysis; assay type: ADME, organism-based; set-up: dose 10 mg/kg, time < 24 hrs, route po
[31] = Tmax in Wistar rat plasma at 10 mg/kg, po measured up to 24 hrs by LC-MS/MS analysis; assay type: ADME, organism-based
[32] = AUC in Wistar rat plasma at 10 mg/kg, po measured up to 24 hrs by LC-MS/MS analysis; assay type: ADME, organism-based; set-up: time < 24 hrs, dose 10 mg/kg, route po; conditions: in vivo
[33] = Half life in Wistar rat plasma at 10 mg/kg, po measured up to 24 hrs by LC-MS/MS analysis; assay type: ADME, organism-based
[34] = Bioavailability in Wistar rat plasma at 10 mg/kg, ip measured up to 24 hrs by LC-MS/MS analysis; assay type: ADME, organism-based
[35] = Oral bioavailability in Wistar rat plasma at 10 mg/kg measured up to 24 hrs by LC-MS/MS analysis; assay type: ADME, organism-based
[36] = Half life in Wistar rat brain at 10 mg/kg, po measured up to 24 hrs by LC-MS/MS analysis; assay type: ADME, organism-based

Sequence of Excitatory amino acid transporter 2 (P43004 whole entry): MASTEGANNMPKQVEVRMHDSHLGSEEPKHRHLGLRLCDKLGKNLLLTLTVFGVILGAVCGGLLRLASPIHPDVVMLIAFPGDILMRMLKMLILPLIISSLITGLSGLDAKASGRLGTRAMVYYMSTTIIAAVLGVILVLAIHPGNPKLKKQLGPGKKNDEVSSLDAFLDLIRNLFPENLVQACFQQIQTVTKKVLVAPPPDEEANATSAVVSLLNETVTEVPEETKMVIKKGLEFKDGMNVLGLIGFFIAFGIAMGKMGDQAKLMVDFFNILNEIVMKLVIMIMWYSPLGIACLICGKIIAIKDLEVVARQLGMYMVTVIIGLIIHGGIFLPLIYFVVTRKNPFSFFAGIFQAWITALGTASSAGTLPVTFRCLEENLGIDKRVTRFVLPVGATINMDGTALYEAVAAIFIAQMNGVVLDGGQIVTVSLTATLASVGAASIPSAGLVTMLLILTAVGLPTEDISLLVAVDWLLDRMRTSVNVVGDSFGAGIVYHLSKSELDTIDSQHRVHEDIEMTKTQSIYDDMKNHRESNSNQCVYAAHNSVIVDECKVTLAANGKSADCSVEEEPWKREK

Compound | EC50 [1] | logP [10] | Cmax [11] | Tmax [12] | AUC [13] | half-life [14] | Cmax [15] | Tmax [16] | AUC [17] | half-life [18] | Cmax [19] | Tmax [20] | AUC [21] | half-life [22] | Cmax [23] | Tmax [24] | AUC [25] | half-life [26] | Cmax [27] | Tmax [28] | further results
Cc1ccccc1CSc1ccc(-c2ccccn2)nn1 | 1.83 µM | – | – | – | – | – | – | – | – | – | – | – | – | – | – | – | – | – | – | – | –
COc1ccc2[nH]c(=O)c(C(c3nnnn3CCc3ccccc3)N3CCN(c4cccc(C(F)(F)F)c4)CC3)cc2c1 (stereo not drawn) | – | > 6 | – | – | – | – | – | – | – | – | – | – | – | – | – | – | – | – | – | – | AUC [2]: 86 ng·h/g; half-life [3]: 3.5 h; Cmax [4]: 30 ng/mL; Tmax [5]: 0.5 h; AUC [6]: 1339 ng·h/g; half-life [7]: 3 h; Cmax [8]: 717 ng/mL; Tmax [9]: 0.5 h
COc1ccc(NC(=O)C(=O)N2CCN(c3ccccc3)CC2)cc1 | – | – | 371 ng/g | 0.5 h | 443.23 ng·h/g | 1.52 h | 567 ng/g | 0.5 h | 919.43 ng·h/g | 6.08 h | 204 ng/g | 0.5 h | 429.85 ng·h/g | 2.26 h | 450 ng/g | 0.63 h | 1073.21 ng·h/g | 6.22 h | 25 ng/g | 1.38 h | AUC [29]: 183 ng·h/g; Cmax [30]: 42.9 ng/g; Tmax [31]: 3.25 h; AUC [32]: 321.93 ng·h/g; half-life [33]: 5.34 h; bioavailability [34]: 58.4%; bioavailability [35]: 17.5%
COc1ccc(NC(=O)C(=O)NCC(c2ccccc2)N2CCN(C)CC2)cc1 (stereo not drawn) | – | – | 1220 ng/g | 0.5 h | 1959.7 ng·h/g | 1.03 h | 307 ng/g | 0.5 h | 315.635 ng·h/g | 0.651 h | 2460 ng/g | 0.5 h | 4414.35 ng·h/g | 1.62 h | 262 ng/g | 0.5 h | 536.768 ng·h/g | 1.02 h | 1170 ng/g | 0.88 h | AUC [29]: 2816.8 ng·h/g; half-life [36]: 1.81 h; Cmax [30]: 204 ng/g; Tmax [31]: 0.875 h; AUC [32]: 507.2 ng·h/g; half-life [33]: 4.76 h; bioavailability [34]: 85%; bioavailability [35]: 80.3%
CO/N=C(\C(=O)N[C@@H]1C(=O)N2C(C(=O)O)=C(CSc3nc(=O)c(=O)[nH]n3C)CS[C@H]12)c1csc(N)n1 [CEFTRIAXONE] | > 10 µM | – | – | – | – | – | – | – | – | – | – | – | – | – | – | – | – | – | – | – | –
COc1ccc2[nH]c(=O)c(C(c3nnnn3CCc3ccccc3)N3CCN(C4CCCCC4)CC3)cc2c1 (stereo not drawn) | – | > 6 | – | – | – | – | – | – | – | – | – | – | – | – | – | – | – | – | – | – | –
